Test results as given in patent US9884848B2, “Phenyl triazole derivative and its use for modulating the GABAA receptor complex” (SANIONA A/S, priority 2012, dated 2018).

Target: T1, human GABAA α5β3*γ2s receptors (Homo sapiens, UniProt P18507+P31644)
T1 construct: expressed in transfected cells
Experiment: In vitro inhibition of 3H-flumazenil binding, HEK cells expressing the human GABAA α5β3*γ2S receptor
Procedure: When the cultures reach confluency, the DMEM is removed and the cells are washed (10 ml for T175 flasks; 50 ml for roller bottles) once in Dulbecco's Phosphate Buffered Saline (DPBS). Following addition of DPBS to the cultures (10 ml for T175 flasks; 100 ml for roller bottles) for approximately 5 min cells are easily detached from the surface by shaking or tapping the flask gently. The cell suspension is transferred to Falcon tubes and centrifuged at 23,500×g for 10 min at 2° C. The pellet is washed once in 15 ml Tris-citrate buffer (50 mM, pH 7.1) using an Ultra-Turrax homogenizer and centrifuged at 2° C. for 10 min at 27,000×g. The washed pellet is re-suspended in 15 ml Tris-citrate buffer and frozen at −80° C. until the day of the binding experiment.
On the day of the experiment the cell membrane preparation is thawed and centrifuged at 2° C. for 10 min at 27,000×g.
Non-specific binding is determined using clonazepam (1 μM, final concentration). […]
The amount of radioactivity on the filters is determined by conventional liquid scintillation counting using a […]
where B is the binding in percentage of total specific binding; C is the concentration of test compound; and n is the Hill coefficient. […] The IC50 value is calculated from the concentration response curves by the non-linear regression method using the curve-fitting program GraphPad Prism.

T1 sequence (P31644 32-462): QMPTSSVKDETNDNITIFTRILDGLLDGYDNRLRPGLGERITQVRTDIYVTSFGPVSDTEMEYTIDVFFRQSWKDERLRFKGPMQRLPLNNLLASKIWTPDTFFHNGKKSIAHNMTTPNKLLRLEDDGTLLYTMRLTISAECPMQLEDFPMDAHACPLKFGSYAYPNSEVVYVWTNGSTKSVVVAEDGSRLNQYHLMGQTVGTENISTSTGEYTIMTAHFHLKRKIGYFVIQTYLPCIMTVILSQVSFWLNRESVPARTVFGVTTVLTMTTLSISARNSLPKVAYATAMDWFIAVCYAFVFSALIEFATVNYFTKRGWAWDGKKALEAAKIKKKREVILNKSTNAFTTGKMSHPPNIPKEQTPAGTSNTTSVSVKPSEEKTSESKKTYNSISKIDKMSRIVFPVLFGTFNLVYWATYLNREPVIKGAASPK
T1 sequence (P18507 40-467 isoform P18507-1 limits assumed): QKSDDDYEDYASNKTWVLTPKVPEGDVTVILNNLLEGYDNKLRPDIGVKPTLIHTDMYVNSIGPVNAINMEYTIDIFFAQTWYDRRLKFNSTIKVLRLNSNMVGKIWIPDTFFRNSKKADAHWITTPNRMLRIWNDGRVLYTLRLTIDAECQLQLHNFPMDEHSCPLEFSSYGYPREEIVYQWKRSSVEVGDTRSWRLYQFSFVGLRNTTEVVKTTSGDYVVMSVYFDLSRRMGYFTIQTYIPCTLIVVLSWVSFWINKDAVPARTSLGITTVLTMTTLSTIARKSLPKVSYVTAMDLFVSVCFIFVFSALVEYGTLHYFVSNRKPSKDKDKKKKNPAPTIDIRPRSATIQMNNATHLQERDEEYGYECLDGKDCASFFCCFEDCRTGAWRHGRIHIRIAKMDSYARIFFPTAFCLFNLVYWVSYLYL

Ki: 87 nM
Structure (SMILES): NC(=O)c1ccc(OCc2c(C(F)F)nnn2-c2ccc(F)cc2)nn1 [Compound 1, 6-[[5-(difluoromethyl)-3-(4-fluorophenyl)triazol-4-yl]methoxy]pyridazine-3-carboxamide]
